Measured values taken from publication PMC6009898 (Journal of Enzyme Inhibition and Medicinal Chemistry, 2017).
Read-outs that look alike come from different tables or passages of the source.

What was measured:
AChE (from electric eel) = biological target: T1, AChE (from electric eel) (Electrophorus electricus, UniProt O42275); assay: biochemical; conditions: means ± SD of three experiments; read-out: IC50 eeAChE
T1 construct: Acetylcholinesterase (E.C. 3.1.1.7) from electric eel and human erythrocytes; purchased Sigma-Aldrich (St. Louis, MO); host or cells: electric eel (natural source)

[1] = biological target: T2, BuChE (from equine serum) (Equus caballus, UniProt P81908); assay: biochemical; format: biochemical; conditions: for IC50: means ± SD of three experiments
T2 construct: butyrylcholinesterase (BuChE, E.C. 3.1.1.8) from equine serum and human serum; purchased Sigma-Aldrich (St. Louis, MO); host or cells: equine serum

Aβ (1–42) [2] = biological target: T3, Aβ (1–42) (Homo sapiens, UniProt P05067); assay: Inhibition of Aβ (1–42) self-induced aggregation (Thioflavin T assay); conditions: read-out: Aβ (1–42) aggregation inhibition (%)
AChE = conditions: cited from earlier work
human AChE = biological target: T4, human AChE (Homo sapiens, UniProt P22303); assay: biochemical; conditions: means ± SD of three experiments; read-out: IC50 hAChE
T4 construct: Acetylcholinesterase (E.C. 3.1.1.7) from electric eel and human erythrocytes; purchased Sigma-Aldrich (St. Louis, MO); host or cells: human erythrocytes

in vitro = assay: in vitro; design: Papp at 16 h: dose or concentration left out as unconfirmed; conditions: PAMPA
Procedure: Commercial drugs were purchased from Sigma (St. Louis, MO) and Alfa Aesar (Haverhill, MA). The porcine brain lipid (PBL) was obtained from Avanti Polar Lipids (Alabaster, AL). The donor microplate (PVDF membrane, pore size […]) and the acceptor microplate were both from Millipore (Darmstadt, Germany). The 96-well UV plate (COSTAR^@) was from Corning Incorporated (Harrodsburg, KY). The acceptor 96-well microplate was filled with 300 μL of PBS/EtOH (7:3), and the filter membrane was impregnated with 4 μL of PBL in dodecane (20 mg/mL). […] The […] was carefully placed on the donor plate to form a sandwich, which was left undisturbed for 16 h at 25 °C. After incubation, the donor plate was carefully removed and the concentration of compound in the acceptor wells was determined using an UV plate reader (Flexstation^@ 3). Every sample was analyzed at five wavelengths, in four wells, in at least three independent runs, and the results are given as the mean ± SD. In each experiment, nine quality control standards of known BBB permeability were included to validate the analysis set.

Aβ (1–42) [3] = biological target: T3, Aβ (1–42); assay: Inhibition of Cu^2+-induced Aβ (1–42) aggregation (ThT assay); format: biochemical; conditions: Aβ 25 μM, compound 50 μM, Cu^2+ 25 μM, 37 °C, 24 h; read-out: Inhibition of Cu^2+-induced Aβ aggregation
Procedure: The mixture of the peptide (10 μL, 25 μM, final concentration) with or without copper (10 μL, 25 μM, final concentration) and the test compound (10 μL, 50 μM, final concentration) were incubated at 37 °C for 24 h. The 20 μL of the sample was diluted to a final volume of 200 μL with […] glycine–NaOH buffer (pH 8.0) containing ThT (5 μM). The detection method was the same as that of self-induced Aβ aggregation experiment.

T2 sequence (P81908 whole entry): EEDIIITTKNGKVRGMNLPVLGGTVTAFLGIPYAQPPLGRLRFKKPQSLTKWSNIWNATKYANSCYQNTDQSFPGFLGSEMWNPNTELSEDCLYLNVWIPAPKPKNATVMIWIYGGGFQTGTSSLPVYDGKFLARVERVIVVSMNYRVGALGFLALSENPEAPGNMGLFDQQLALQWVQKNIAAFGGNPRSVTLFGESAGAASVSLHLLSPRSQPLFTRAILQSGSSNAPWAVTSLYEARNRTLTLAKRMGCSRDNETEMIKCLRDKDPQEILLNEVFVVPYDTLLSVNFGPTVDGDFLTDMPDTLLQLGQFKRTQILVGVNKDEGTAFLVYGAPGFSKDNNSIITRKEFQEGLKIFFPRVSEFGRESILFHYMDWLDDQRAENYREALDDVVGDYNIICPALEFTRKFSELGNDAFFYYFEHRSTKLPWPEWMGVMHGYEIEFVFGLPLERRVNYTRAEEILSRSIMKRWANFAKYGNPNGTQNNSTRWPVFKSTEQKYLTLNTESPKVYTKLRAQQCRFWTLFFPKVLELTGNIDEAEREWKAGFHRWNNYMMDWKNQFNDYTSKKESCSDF
T1 sequence (O42275 24-633): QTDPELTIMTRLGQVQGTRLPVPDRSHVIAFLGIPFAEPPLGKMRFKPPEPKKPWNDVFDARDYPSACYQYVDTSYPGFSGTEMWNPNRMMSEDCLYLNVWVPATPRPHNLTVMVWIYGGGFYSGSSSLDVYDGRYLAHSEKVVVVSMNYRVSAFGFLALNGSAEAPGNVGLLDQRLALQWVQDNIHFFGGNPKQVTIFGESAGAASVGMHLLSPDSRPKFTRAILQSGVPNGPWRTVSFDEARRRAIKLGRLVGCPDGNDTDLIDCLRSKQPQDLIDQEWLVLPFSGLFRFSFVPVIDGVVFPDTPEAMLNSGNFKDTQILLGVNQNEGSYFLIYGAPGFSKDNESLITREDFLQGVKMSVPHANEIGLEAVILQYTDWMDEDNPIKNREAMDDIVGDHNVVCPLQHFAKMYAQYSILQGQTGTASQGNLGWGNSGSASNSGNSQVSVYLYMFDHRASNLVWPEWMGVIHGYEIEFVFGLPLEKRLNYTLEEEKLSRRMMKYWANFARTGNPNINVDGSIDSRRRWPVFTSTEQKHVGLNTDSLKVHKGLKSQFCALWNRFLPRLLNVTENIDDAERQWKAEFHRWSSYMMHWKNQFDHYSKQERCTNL
T4 sequence (P22303 other isoform, or with tags, fused parts or gaps): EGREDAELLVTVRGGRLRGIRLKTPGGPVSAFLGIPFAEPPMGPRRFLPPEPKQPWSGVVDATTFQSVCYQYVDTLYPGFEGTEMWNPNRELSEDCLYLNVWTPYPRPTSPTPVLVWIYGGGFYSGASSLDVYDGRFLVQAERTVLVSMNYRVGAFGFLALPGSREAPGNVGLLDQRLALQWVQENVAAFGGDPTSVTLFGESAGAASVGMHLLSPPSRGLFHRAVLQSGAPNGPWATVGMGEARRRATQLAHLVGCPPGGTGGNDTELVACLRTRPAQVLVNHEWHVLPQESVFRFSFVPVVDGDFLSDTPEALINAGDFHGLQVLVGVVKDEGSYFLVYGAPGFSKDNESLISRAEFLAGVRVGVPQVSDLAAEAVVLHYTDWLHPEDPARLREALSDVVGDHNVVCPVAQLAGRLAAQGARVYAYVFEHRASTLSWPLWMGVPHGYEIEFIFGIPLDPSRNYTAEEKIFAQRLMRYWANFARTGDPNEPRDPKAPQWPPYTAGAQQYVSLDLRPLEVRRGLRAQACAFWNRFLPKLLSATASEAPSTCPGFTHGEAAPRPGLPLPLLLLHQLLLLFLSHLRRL
T3 sequence (P05067 672-713): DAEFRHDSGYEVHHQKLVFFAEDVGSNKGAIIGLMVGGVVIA

Compound | IC50 (AChE (from electric eel)) [nM] | IC50 ([1]; IC50 eqBuChE) [nM] | ABTS assay (trolox equiv) | inhibition at 20 µM (Aβ (1–42) [2]) [%] | also measured
O=C(C=Cc1ccccc1)Nc1cc[n+](Cc2cccc(Br)c2)cc1.[Br-] [Compound 5f, 1-(3-Bromobenzyl)-4-cinnamamidopyridin-1-ium bromide] | 154 ± 2.6 | 2500 ± 300 | N (N means <0.05) | 48.8 ± 2.1 | –
O=C(C=Cc1ccccc1)Nc1cc[n+](Cc2cccc(F)c2)cc1.[Br-] [Compound 5d, 4-Cinnamamido-1-(3-fluorobenzyl) pyridin-1-ium bromide] | 93.5 ± 7.7 | 7400 ± 500 | N (N means <0.05) | 53.6 ± 2.3 | –
O=C(C=Cc1ccccc1)Nc1cc[n+](Cc2ccc(Br)cc2)cc1.[Br-] [Compound 5g, 1-(4-Bromobenzyl)-4-cinnamamidopyridin-1-ium bromide] | 1451 ± 4.3 | 2100 ± 800 | N (N means <0.05) | 57.2 ± 1.1 | –
Cc1ccc(C[n+]2ccc(NC(=O)C=Cc3ccccc3)cc2)cc1.[Br-] [Compound 5c, 4-Cinnamamido-1-(4-methylbenzyl) pyridin-1-ium bromide] | 1263.8 ± 1.2 | 25000 ± 700 | N (N means <0.05) | 55.1 ± 1.5 | –
[Br-].c1ccc(C[n+]2ccccc2)cc1 [benzyl pyridinium bromide] | – | – | – | – | AChE inhibition (AChE): micromolar range
COc1cc(/C=C/C(=O)CC(=O)/C=C/c2ccc(O)c(OC)c2)ccc1O [Curcumin, reference compound] | – | – | – | 54.6 ± 2.6 | –
O=C(O)/C=C/c1ccccc1 [Cinnamic acid, reference compound] | – | – | – | – | IC50 ([1]; read-out: IC50 eqBuChE): > 100000 nM
COc1ccc(/C=C/C(=O)Nc2cc[n+](Cc3ccccc3)cc2)cc1OC.[Br-] [Compound 5h, (E)-1-benzyl-4-(3-(3,4-dimethoxyphenyl)acrylamido) pyridin-1-ium bromide] | 135 ± 4.8 | 4500 ± 700 | N (N means <0.05) | 55.7 ± 3.2 | –
O=C(C=Cc1ccccc1)Nc1cc[n+](Cc2ccc(F)cc2)cc1.[Br-] [Compound 5e, 4-Cinnamamido-1-(4-fluorobenzyl) pyridin-1-ium bromide] | 90.8 ± 9.2 | 10000 ± 400 | N (N means <0.05) | 52.8 ± 1.8 | –
COc1ccc(/C=C/C(=O)Nc2cc[n+](Cc3cccc(C)c3)cc2)cc1OC.[Br-] [Compound 5i, (E)-4-(3-(3,4-dimethoxyphenyl)acrylamido)-1-(3-methylbenzyl) pyridin-1-ium bromide] | – | 2700 ± 800 | N (N means <0.05) | 53.9 ± 0.9 | IC50 (human AChE): 43.7 ± 0.5 nM
COc1ccc(/C=C/C(=O)Nc2cc[n+](Cc3cccc(F)c3)cc2)cc1OC.[Br-] [Compound 5k, (E)-4-(3-(3,4-dimethoxyphenyl)acrylamido)-1-(3-fluorobenzyl) pyridin-1-ium bromide] | 20.6 ± 1 | 3100 ± 500 | N (N means <0.05) | 65.6 ± 2.3 | IC50 (human AChE): 19.2 ± 1.6 nM
COc1ccc(/C=C/C(=O)Nc2cc[n+](Cc3ccc(C)cc3)cc2)cc1OC.[Br-] [Compound 5j, (E)-4-(3-(3,4-dimethoxyphenyl)acrylamido)-1-(4-methylbenzyl) pyridin-1-ium bromide] | 90.7 ± 3.2 | 3800 ± 900 | N (N means <0.05) | 63.4 ± 2.8 | IC50 (human AChE): 96.5 ± 2.8 nM
CC(=O)[C@H]1CC[C@H]2[C@@H]3CCC4=CC(=O)CC[C@]4(C)[C@H]3CC[C@]12C [Progesterone, reference compound] | – | – | – | – | Papp at 16 h (in vitro): 5.34 ×10⁻⁶ cm/s
COc1ccc(/C=C/C(=O)Nc2cc[n+](Cc3cccc(Br)c3)cc2)cc1OC.[Br-] [Compound 5m, (E)-1-(3-bromobenzyl)-4-(3-(3,4-dimethoxyphenyl)acrylamido) pyridin-1-ium bromide] | 92.6 ± 9 | 2500 ± 600 | N (N means <0.05) | 62.8 ± 1.4 | IC50 (human AChE): 79.4 ± 1.5 nM
Oc1c(I)cc(Cl)c2cccnc12 [CQ, Clioquinol, reference compound] | – | – | – | – | inhibition at 50 µM (Aβ (1–42) [3]): 60.2%
O=C(C=Cc1ccccc1)Nc1cc[n+](Cc2ccccc2)cc1.[Br-] [Compound 5a, 1-Benzyl-4-cinnamamidopyridin-1-ium bromide] | 54.1 ± 8.2 | 6300 ± 600 | N^c (N means <0.05) | 46.3 ± 1.6 | –
COc1ccc(/C=C/C(=O)Nc2cc[n+](Cc3ccc(Br)cc3)cc2)cc1OC.[Br-] [Compound 5n, (E)-1-(4-bromobenzyl)-4-(3-(3,4-dimethoxyphenyl)acrylamido) pyridin-1-ium bromide] | 50.3 ± 8.3 | 1900 ± 500 | N (N means <0.05) | 66.3 ± 2.9 | Times more potent against BuChE than donepezil ([1]; eqBuChE IC50 compared with donepezil): 2.3 times; IC50 (human AChE): 51.1 ± 4.8 nM
Cc1cccc(C[n+]2ccc(NC(=O)C=Cc3ccccc3)cc2)c1.[Br-] [Compound 5b, 4-Cinnamamido-1-(3-methylbenzyl) pyridin-1-ium bromide] | 103 ± 9.6 | 8100 ± 1300 | N (N means <0.05) | 48.5 ± 1.8 | –
